Test systems include DLD-1 colon; HOP-18 NSCLC; KM20L2 colon; M19-MEL melanoma; MDA-N; RXF-631 renal; SNB-78 CNS; T-47D breast; XF 498 CNS.
What all share (assay): inhibition of tumour cell growth, NCI panel, 48 h

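In this assay, cells in 96-well plates receive the compound at five concentrations for 48 hours. Endpoints are linearly interpolated between the surrounding concentrations. TGI: concentration producing complete growth inhibition.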

In the case of `Cc1ccc2oc(=O)c3c(O)c4cccc(OC5OC(C)C6O[C@@H](c7ccccc7)OC6C5OC5OC(C)C(O)C(O)C5O)c4c4oc(=O)c1c2c34` (stereo partly drawn), the TGI with DLD-1 colon was 6.08 µM; in the experiment with HOP-18 NSCLC it was 19.4 µM; with KM20L2 colon, 4.08 µM; in the experiment with M19-MEL melanoma it was 3.43 µM; with MDA-N, 1.72 µM; in the experiment with RXF-631 renal, 4.4 µM. Moreover, the TGI with SNB-78 CNS was 5.23 µM; in the experiment on T-47D breast, 1.23 µM; with XF 498 CNS, 2.05 µM.

Take `O=C(O)c1c2c(cc3c(=O)c4ccccc4[nH]c13)CCCC2`: the TGI in the experiment with HOP-18 NSCLC, in the experiment with KM20L2 colon, with M19-MEL melanoma, with RXF-631 renal, with SNB-78 CNS and with XF 498 CNS was more than 100 µM in each case.

Turning to `O=[N+]([O-])c1cc(/C=N\NS(=O)(=O)c2ccc(Cl)cc2)c(O)c([N+](=O)[O-])c1`, the TGI in the experiment with DLD-1 colon is more than 100 µM; in the experiment on HOP-18 NSCLC, more than 100 µM; in the experiment with KM20L2 colon it was 74.1 µM; in the experiment on M19-MEL melanoma it was more than 100 µM; with RXF-631 renal, more than 100 µM; in the experiment with SNB-78 CNS, more than 100 µM.

As for `Cc1ccc(N2C(=O)/C(=C/c3ccc(N(CCC#N)CCC#N)cc3)N=C2COc2ccc(Cl)cc2Cl)cc1`, the TGI with DLD-1 colon, in the experiment with HOP-18 NSCLC, in the experiment on KM20L2 colon, in the experiment on RXF-631 renal, in the experiment on SNB-78 CNS and in the experiment on XF 498 CNS was more than 100 µM in each case.

Take `CCC1CCCCN1CC(C(C)=O)C(c1ccccc1)c1c(O)c2ccccc2oc1=O` (stereo not drawn): the TGI in the experiment with DLD-1 colon, with KM20L2 colon, with M19-MEL melanoma, in the experiment with RXF-631 renal, with SNB-78 CNS and with XF 498 CNS was more than 100 µM throughout.

As to `CCCCCCC(=O)C/C(CCC(=O)N(Cc1ccccc1)Cc1ccccc1)=N\NC(N)=O`, the TGI with HOP-18 NSCLC, with KM20L2 colon, in the experiment with M19-MEL melanoma, in the experiment with RXF-631 renal, with SNB-78 CNS and with XF 498 CNS was more than 100 µM throughout.

As for `O=C1CC(C2(O)C(=O)Nc3ccc([N+](=O)[O-])cc32)c2ccccc21` (stereo not drawn), the TGI in the experiment on DLD-1 colon was more than 100 µM; with HOP-18 NSCLC it was more than 100 µM; with M19-MEL melanoma, 78.7 µM; in the experiment on RXF-631 renal, 31.8 µM; in the experiment with SNB-78 CNS, more than 100 µM.

As to `CCCC(O)c1cn(-c2cccc(S(=O)(=O)O)c2)nn1` (stereo not drawn), the TGI with DLD-1 colon, with HOP-18 NSCLC, in the experiment on KM20L2 colon, in the experiment on M19-MEL melanoma, in the experiment on RXF-631 renal and with SNB-78 CNS was more than 100 µM throughout. Also, the TGI with XF 498 CNS was more than 100 µM.

As for `O=C1C(Cl)=C(Cl)C(=O)N1c1ccc(Cl)c(Cl)c1Cl`, the TGI with DLD-1 colon, in the experiment with HOP-18 NSCLC, in the experiment on KM20L2 colon, in the experiment with M19-MEL melanoma, in the experiment on RXF-631 renal and in the experiment with SNB-78 CNS was more than 100 µM throughout.

For `COc1ccc(Br)c(CN2CCc3ccccc32)c1OS(=O)(=O)c1ccc(C)cc1`, the TGI was more than 100 µM in the experiment with DLD-1 colon; more than 100 µM in the experiment on HOP-18 NSCLC; more than 100 µM in the experiment with M19-MEL melanoma; more than 100 µM in the experiment on RXF-631 renal; more than 100 µM in the experiment on SNB-78 CNS; 92 µM in the experiment on XF 498 CNS.

With `Cc1cc(Cl)cc2c1NC(=O)C2(O)CC(=O)c1ccc(Br)cc1` (stereo not drawn), the TGI with DLD-1 colon is more than 100 µM; in the experiment on KM20L2 colon, more than 100 µM; in the experiment with M19-MEL melanoma it was more than 55 µM; with RXF-631 renal, more than 100 µM; in the experiment on XF 498 CNS it was 76.2 µM.

As for `CCOC(=O)[C@@]12C(C)=CC(=O)O[C@]1(C)C1C(=O)NC(=O)C12` (stereo partly drawn), the TGI in the experiment with DLD-1 colon, in the experiment on HOP-18 NSCLC, in the experiment with KM20L2 colon, in the experiment with RXF-631 renal and in the experiment on SNB-78 CNS was more than 100 µM each time.

The record behind these values is PubChem BioAssay (NCI).
